From patent US5652226A (priority 1995, dated 1997)
In brackets after ≈: the same amount, converted by molar mass.

Legend:
Assay type in all cases: cell-based
Mycoplasma = test: microbe, parasite or virus in culture; conditions: read-out: MICs
[1] = test system: various strains of streptococci and enterococci resistant to vancomycin; test: microbe, parasite or virus in culture; conditions: read-out: MICs
Enterococcus faecalis = test: microbe, parasite or virus in culture
Trichiomonas vaginalis = test: microbe, parasite or virus in culture; conditions: read-out: MICs
[2] = test system: methicillin-resistant staphylococci; test: microbe, parasite or virus in culture
gram negative bacteria = test: microbe, parasite or virus in culture; conditions: read-out: GMM
[3] = test system: gram positive and gram negative bacteria
[4] = test system: Legionella pneumophila and L. Longbeachea; test: microbe, parasite or virus in culture; conditions: read-out: MICs
Borrelia burgdorferi = test: microbe, parasite or virus in culture; conditions: Borreliella burgdorferi, read-out: MICs
[5] = test system: methicillin-susceptible staphylococci; test: microbe, parasite or virus in culture

| SMILES | MIC (Mycoplasma) [mg/L] | MIC [1] [mg/L] | potency relative to vancomycin (Enterococcus faecalis) [fold] | MIC (Enterococcus faecalis; Enterococcus faecalis, read-out: GMM) [mg/L] | MIC (Trichiomonas vaginalis) [mg/L] | potency relative to vancomycin ([2]; more potent than vancomycin, methicillin-resistant staphylococci) [fold] | MIC ([2]; read-out: GMM) [mg/L] | MIC (gram negative bacteria) [mg/L] | cross resistance with other antibiotics [3] | MIC [4] [mg/L] | MIC (Borrelia burgdorferi) [mg/L] | potency relative to vancomycin [5] [fold] | MIC ([5]; read-out: GMM) [mg/L] |
| --- | --- | --- | --- | --- | --- | --- | --- | --- | --- | --- | --- | --- | --- |
| COC[C@H]1O[C@@H](O[C@@H]2OC[C@@H]3O[C@@]4(OC[C@@H](OC(=O)c5c(C)cc(O)cc5O)[C@@H]5OCO[C@H]54)O[C@H]3[C@H]2O)[C@@H](OC)[C@@H](O)[C@@H]1O[C@@H]1O[C@H](C)[C@H](OC)[C@H](O[C@@H]2O[C@H](C)[C@H]3O[C@]4(C[C@@H](O)[C@H](O[C@H]5C[C@@H](O[C@H]6C[C@](C)([N+](=O)[O-])[C@@H](OC)[C@H](C)O6)[C@H](OC(=O)c6c(C)c(Cl)c(O)c(Cl)c6OC)[C@@H](C)O5)[C@@H](C)O4)O[C@]3(C)[C@@H]2O)[C@H]1O [Everninomicin, everninomicin] | ≥ 200 | ≤ 0.5 | 2 | 0.49 (≈ 0.3 µM) | ≥ 192 | 10 | 0.1 (≈ 0.0613 µM) | ≥ 760 | No cross resistance with other antibiotics was observed | ≥ 2.5 | ≤ 0.49 | 10 | 0.5 (≈ 0.306 µM) |
| CN[C@H](CC(C)C)C(=O)N[C@H]1C(=O)N[C@@H](CC(N)=O)C(=O)N[C@H]2C(=O)N[C@H]3C(=O)N[C@H](C(=O)N[C@H](C(=O)O)c4cc(O)cc(O)c4-c4cc3ccc4O)[C@H](O)c3ccc(c(Cl)c3)Oc3cc2cc(c3O[C@@H]2O[C@H](CO)[C@@H](O)[C@H](O)[C@H]2O[C@H]2C[C@](C)(N)[C@H](O)[C@H](C)O2)Oc2ccc(cc2Cl)[C@H]1O [vancomycin] | – | ≥ 128 | – | – | – | – | – | – | – | – | – | – | – |
